Among the data in patent publication US20240174670A1, “4-AMINO-6-OXO-PYRIDAZINE DERIVATIVES MODULATING NLRP3” (JANSSEN PHARMACEUTICA NV, priority 2021, published 2024) are AC50 values, retold here.

Test [1] has as its system IL-1β. Kind of test: PBMC assay, IL-1β release after LPS stimulation. As to conditions: human PBMCs, 30 min preincubation, 100 ng/ml LPS for 6 hrs, supernatant, MSD technology, read-out: IL1β AC50. It is filed as cell-based. The protocol:
The activity of a compound according to the present invention can be assessed by in vitro methods.
(§1) Peripheral venous blood was collected from healthy individuals and human peripheral blood mononuclear cells (PBMCs) were isolated from blood by Ficoll-Histopaque (Sigma-Aldrich, A0561) density gradient centrifugation. After isolation, PBMCs were stored in liquid nitrogen for later use. Upon thawing, PBMC cell viability was determined in growth medium (RPMI media supplemented with 10% fetal bovine serum, 1% Pen-Strep and 1% L-glutamine). Compounds were spotted in a 1:3 serial dilution in DMSO and diluted to the final concentration in 30 μl medium in 96 well plates (Falcon, 353072). PBMCs were added at a density of 7.5×10^4 cells per well and incubated for 30 min in a 5% CO2 incubator at 37 ° C. LPS stimulation was performed by addition of 100 ng/ml LPS (final concentration, Invivogen, tlrl-smlps) for 6 hrs followed by collection of cellular supernatant and the analysis of IL-1β[…] and TNF cytokines levels (uμ) via MSD technology according to manufacturers' guidelines (MSD, K151A0H).
(§2) IC50 and AC50 values (for IL-1β) and EC50 and AC50 values (TNF) were obtained on compounds of the invention/examples, and the AC50 values are depicted in the following table: […]

For test [2], the system named is TNF. Kind of test: PBMC assay, TNF release after LPS stimulation. It is filed as cell-based. The following applies: human PBMCs, 30 min preincubation, 100 ng/ml LPS for 6 hrs, supernatant, MSD technology. On the procedure:
as §1, §2

In general, AC50 refers to the midpoint of the concentration-response curve, whichever way the signal moves.

`CC(C)c1nn(CC(=O)Nc2ccc3nncn3c2)c(=O)cc1N1CCC[C@H]1CO` (single isomer, unassigned) [Compound 11]: the AC50 in test [1] was over 15 µM; in test [2], over 10 µM.

For the compound `CC(C)c1nn(CC(=O)Nc2ccc3nncn3c2)c(=O)cc1Nc1ccccc1` [Compound 1, 2-(4-anilino-3-isopropyl-6-oxo-pyridazin-1-yl)-N-([1,2,4]triazolo[4,3-a]pyridin-6-yl)acetamide], the AC50 in test [1] was over 15 µM; in test [2], over 10 µM.

For `CC(C)c1nn(CC(=O)Nc2ccc3nncn3c2)c(=O)cc1Nc1cnn(CC23CC(CO2)C3)c1` [Compound 2], the AC50 in test [1] is over 15 µM; in test [2], over 10 µM.

As for `CC(C)c1nn(CC(=O)Nc2ccc3nncn3c2)c(=O)cc1Nc1cnn(CC23CC(CO2)C3)c1C(F)(F)F` [Compound 3], the AC50 in test [1] was over 15 µM; in test [2] it was over 10 µM.

Consider `CC(C)c1nn(CC(=O)Nc2ccc3nncn3c2)c(=O)cc1NCC(F)(F)F` [Compound 4], for which the figures for the AC50 in test [1] and in test [2] were over 15 µM and over 10 µM, respectively.

For `CC(C)c1nn(CC(=O)Nc2ccc3nncn3c2)c(=O)cc1N1CCCC1` [Compound 5, 2-(3-isopropyl-6-oxo-4-pyrrolidin-1-yl-pyridazin-1-yl)-N-([1,2,4]triazolo[4,3-a]pyridin-6-yl)acetamide], the AC50 in test [1] is 0.33 µM; in test [2], over 10 µM.

As for `CC(C)c1nn(CC(=O)Nc2ccc3nncn3c2)c(=O)cc1N1CCOCC1` [Compound 6], the AC50 in test [1] is over 15 µM; in test [2], over 10 µM.

Regarding `CC(C)c1nn(CC(=O)Nc2ccc3nncn3c2)c(=O)cc1NC1CCCC1` [Compound 7], the AC50 is 4.36 µM in test [1] and over 10 µM in test [2].

In the case of `COC[C@@H]1CCCN1c1cc(=O)n(CC(=O)Nc2ccc3nncn3c2)nc1C(C)C` [Compound 8], the AC50 in test [1] is 5.81 µM; in test [2] it was over 10 µM.

With `CC(C)c1nn(CC(=O)Nc2ccc3nncn3c2)c(=O)cc1N1CC[C@H](F)C1` [Compound 9], the AC50 is 2.49 µM in test [1] and over 10 µM in test [2].

Regarding `CC(C)c1nn(CC(=O)Nc2ccc3nncn3c2)c(=O)cc1N1CC[C@@H](F)C1` [Compound 10], the figures for the AC50 in test [1] and in test [2] were 0.53 µM and over 10 µM, respectively.

As for `CC(C)c1nn(CC(=O)Nc2ccc3nncn3c2)c(=O)cc1N1CCC(F)(F)CC1` [Compound 12], the AC50 in test [1] is over 15 µM; in test [2], over 10 µM.

Consider `CC(C)c1nn(CC(=O)Nc2ccc3nncn3c2)c(=O)cc1N1CCC(F)(F)C1` [Compound 13], for which the AC50 in test [1] is 0.66 µM; in test [2], over 10 µM.

Consider `CC(C)c1nn(CC(=O)Nc2ccc3nncn3c2)c(=O)cc1N1CC2CC2C1` (centres unmarked) [Compound 14], for which the AC50 in test [1] was 0.09 µM; in test [2] it was over 10 µM.

For the compound `COC[C@H]1CCCN1c1cc(=O)n(CC(=O)Nc2ccc3nncn3c2)nc1C(C)C` [Compound 15], the AC50 is 16.6 µM in test [1] and over 10 µM in test [2].

Regarding `CO[C@H]1CCN(c2cc(=O)n(CC(=O)Nc3ccc4nncn4c3)nc2C(C)C)C1` [Compound 16], the AC50 in test [1] is 11.4 µM; in test [2] it was over 10 µM.

As for `CO[C@@H]1CCN(c2cc(=O)n(CC(=O)Nc3ccc4nncn4c3)nc2C(C)C)C1` [Compound 17], the AC50 in test [1] was 2.9 µM; in test [2] it was over 10 µM.

Take `CC(C)c1nn(CC(=O)Nc2ccc3nncn3c2)c(=O)cc1N1CCC[C@@H]1C` [Compound 18]: the AC50 in test [1] was over 15 µM; in test [2], over 10 µM.

For the compound `CCC1CCCN1c1cc(=O)n(CC(=O)Nc2ccc3nncn3c2)nc1C(C)C` (centres unmarked) [Compound 19], the AC50 was 2.61 µM in test [1] and over 10 µM in test [2].

On to `CC(C)c1nn(CC(=O)Nc2ccc3nncn3c2)c(=O)cc1N1CCCC1C(C)C` (centres unmarked) [Compound 20], for which the AC50 in test [1] is 10.8 µM; in test [2], over 10 µM.

On to `CC(C)c1nn(CC(=O)Nc2ccc3nncn3c2)c(=O)cc1N1C2CCC1CC2` [Compound 21], for which the AC50 was 1.02 µM in test [1] and over 10 µM in test [2].

Turning to `CC1CN(c2cc(=O)n(CC(=O)Nc3ccc4nncn4c3)nc2C(C)C)C1` [Compound 23], the AC50 is 0.71 µM in test [1] and over 10 µM in test [2].

Take `COC1CN(c2cc(=O)n(CC(=O)Nc3ccc4nncn4c3)nc2C(C)C)C1` [Compound 24]: the AC50 was 9.87 µM in test [1] and over 10 µM in test [2].

As to `CC(C)c1nn(CC(=O)Nc2ccc3nncn3c2)c(=O)cc1N1CCC12CCOCC2` [Compound 25], the AC50 in test [1] was over 15 µM; in test [2], over 10 µM.

For the compound `CC(C)c1nn(CC(=O)Nc2ccc3nncn3c2)c(=O)cc1N1CC(C)(O)C1` [Compound 26], the AC50 was over 15 µM in test [1] and over 10 µM in test [2].

Consider `CC(C)c1nn(CC(=O)Nc2ccc3nncn3c2)c(=O)cc1N1CC[C@@H](N(C)C)C1` [Compound 27], for which the AC50 in test [1] was over 15 µM; in test [2], over 10 µM.

On to `CC(C)c1nn(CC(=O)Nc2ccc3nncn3c2)c(=O)cc1N1CC[C@H](N(C)C)C1` [Compound 28], for which the figures for the AC50 in test [1] and in test [2] were over 15 µM and over 10 µM, respectively.

On to `CC(C)c1nn(CC(=O)Nc2ccc3nncn3c2)c(=O)cc1NCC1CC1` [Compound 29, 2-[4-(cyclopropylmethylamino)-3-isopropyl-6-oxo-pyridazin-1-yl]-N-([1,2,4]triazolo[4,3-a]pyridin-6-yl)acetamide], for which the AC50 in test [1] is 1.53 µM; in test [2], over 10 µM.

On to `CC(C)c1nn(CC(=O)Nc2ccc3nncn3c2)c(=O)cc1N(C)C` [Compound 30, 2-[4-(dimethylamino)-3-isopropyl-6-oxo-pyridazin-1-yl]-N-([1,2,4]triazolo[4,3-a]pyridin-6-yl)acetamide], for which the AC50 in test [1] was over 15 µM; in test [2], over 10 µM.

Consider `CC(C)c1nn(CC(=O)Nc2ccc3nncn3c2)c(=O)cc1NC1CC(C)(C)C1` [Compound 31, N-([1,2,4]triazolo[4,3-a]pyridin-6-yl)-2-(4-((3,3-dimethylcyclobutyl)amino)-3-isopropyl-6-oxopyridazin-1(6H)-yl)acetamide], for which the AC50 in test [1] and in test [2] was over 20 µM throughout.

On to `CC(C)c1nn(CC(=O)Nc2ccc3nncn3c2)c(=O)cc1N1CC(C)(F)C1` [Compound 32], for which the AC50 is 1.37 µM in test [1] and over 20 µM in test [2].

As to `CC(C)c1nn(CC(=O)Nc2ccc3nncn3c2)c(=O)cc1N1CC[C@@H]2C[C@@H]2C1` [Compound 33], the AC50 in test [1] was 0.5 µM; in test [2] it was over 20 µM.

Consider `CC(C)c1nn(CC(=O)Nc2ccc3nncn3c2)c(=O)cc1N1Cc2cc(F)cnc2C1` [Compound 34], for which the AC50 in test [1] and in test [2] was over 20 µM throughout.

On to `CC(C)c1nn(CC(=O)Nc2ccc3nncn3c2)c(=O)cc1N1CC(CC(F)F)C1` [Compound 35], for which the AC50 is 4.36 µM in test [1] and over 20 µM in test [2].

On to `CC(C)c1nn(CC(=O)Nc2ccc3nncn3c2)c(=O)cc1N1CCC(C)(O)CC1` [Compound 36], for which the AC50 in test [1] and in test [2] was over 20 µM throughout.

Turning to `CC(C)c1nn(CC(=O)Nc2ccc3nncn3c2)c(=O)cc1NCC(F)c1ccccc1` (centres unmarked) [Compound 37], the AC50 in test [1] and in test [2] was over 20 µM each time.

Turning to `CC(C)c1nn(CC(=O)Nc2ccc3nncn3c2)c(=O)cc1Nc1cccc(C2CC2)n1` [Compound 38, N-([1,2,4]triazolo[4,3-a]pyridin-6-yl)-2-(4-((6-cyclopropylpyridin-2-yl)amino)-3-isopropyl-6-oxopyridazin-1(6H)-yl)acetamide], the concentration at half-maximal activity (AC50) in test [1] and in test [2] was over 4 µM in each case.

For `CC(C)c1nn(CC(=O)Nc2ccc3nncn3c2)c(=O)cc1Nc1cnc(C2CC2)nc1` [Compound 39], the AC50 in test [1] and in test [2] was over 6.67 µM each time.

With `CC(C)c1nn(CC(=O)Nc2ccc3nncn3c2)c(=O)cc1NC(C)C1CC1(F)F` (centres unmarked) [Compound 40, N-([1,2,4]triazolo[4,3-a]pyridin-6-yl)-2-(4-((1-(2,2-difluorocyclopropyl)ethyl)amino)-3-isopropyl-6-oxopyridazin-1(6H)-yl)acetamide], the AC50 in test [1] and in test [2] was over 20 µM throughout.

`CC(C)c1nn(CC(=O)Nc2ccc3nncn3c2)c(=O)cc1Nc1ccc2oncc2c1` [Compound 41, N-([1,2,4]triazolo[4,3-a]pyridin-6-yl)-2-(4-(benzo[d]isoxazol-5-ylamino)-3-isopropyl-6-oxopyridazin-1(6H)-yl)acetamide]: the AC50 in test [1] and in test [2] was over 20 µM throughout.

Take `CC(C)c1nn(CC(=O)Nc2ccc3nncn3c2)c(=O)cc1Nc1cccc2ocnc12` [Compound 42]: the AC50 in test [1] and in test [2] was over 20 µM in each case.

Turning to `CC(C)c1nn(CC(=O)Nc2ccc3nncn3c2)c(=O)cc1Nc1cc([C@H]2C[C@H]2C)on1` [Compound 43], the AC50 in test [1] and in test [2] was over 20 µM in each case.

As for `CC(C)c1nn(CC(=O)Nc2ccc3nncn3c2)c(=O)cc1Nc1cc(CC2CC2)on1` [Compound 44], the AC50 in test [1] and in test [2] was over 20 µM throughout.
